IC50 and Ki data for eight compounds are collected here from ChEMBL document CHEMBL1909046, “DrugMatrix in vitro pharmacology data”.

Assay [1] concerns the target Tyrosine-protein kinase Lck (Homo sapiens, UniProt P06239). Description: DRUGMATRIX: Protein Tyrosine Kinase, LCK enzyme inhibition (substrate: Poly(Glu:Tyr)). In kind it is cell-based, Insect cells. The following applies: Not Active = under 50% inhibition at 10 µM.
Assay [2] deals with T1, C-X-C chemokine receptor type 2 (Homo sapiens, UniProt P25025).
T1 sequence (P25025 whole entry): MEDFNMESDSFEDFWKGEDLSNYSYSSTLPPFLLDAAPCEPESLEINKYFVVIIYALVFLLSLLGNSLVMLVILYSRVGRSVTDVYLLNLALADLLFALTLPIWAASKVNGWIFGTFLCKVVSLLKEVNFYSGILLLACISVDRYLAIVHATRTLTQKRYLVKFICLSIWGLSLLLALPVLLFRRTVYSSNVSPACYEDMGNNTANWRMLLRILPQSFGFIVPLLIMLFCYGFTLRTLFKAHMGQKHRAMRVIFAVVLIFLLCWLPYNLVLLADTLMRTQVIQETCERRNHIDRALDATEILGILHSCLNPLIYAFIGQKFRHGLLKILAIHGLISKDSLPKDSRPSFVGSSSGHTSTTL
The format is cell membranes, Membrane. The note with it: cho-k1.

The target in assay [3] is Tyrosine-protein kinase Fyn (Homo sapiens, UniProt P06241). Description: biochemical. The format is cell-based, Insect cells.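 Further: enzymatic inhibition of Fyn kinase activity measured with Poly(Glu:Tyr) as the phosphorylation substrate; in other assays of this panel Not Active means under 50% inhibition at 10 µM.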
Sequence of Tyrosine-protein kinase Fyn (P06241 whole entry): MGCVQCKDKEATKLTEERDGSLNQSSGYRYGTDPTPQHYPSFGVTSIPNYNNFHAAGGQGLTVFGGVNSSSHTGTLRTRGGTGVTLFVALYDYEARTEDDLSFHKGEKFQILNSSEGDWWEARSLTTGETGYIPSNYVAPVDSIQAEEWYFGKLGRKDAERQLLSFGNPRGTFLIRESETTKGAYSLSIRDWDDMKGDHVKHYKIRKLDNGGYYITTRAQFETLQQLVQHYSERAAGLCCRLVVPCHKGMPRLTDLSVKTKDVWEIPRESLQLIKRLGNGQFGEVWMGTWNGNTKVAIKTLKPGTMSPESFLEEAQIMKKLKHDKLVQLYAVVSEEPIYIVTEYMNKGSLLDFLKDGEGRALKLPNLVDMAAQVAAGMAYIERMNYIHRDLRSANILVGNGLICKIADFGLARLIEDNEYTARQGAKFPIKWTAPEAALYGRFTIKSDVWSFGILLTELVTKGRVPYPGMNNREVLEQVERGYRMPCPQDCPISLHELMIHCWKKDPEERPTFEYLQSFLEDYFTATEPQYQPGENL
Assay [4] in a line: DRUGMATRIX: Tumor Necrosis Factor (TNF), Non-Selective radioligand binding (ligand: [125I] TNF-alpha). The format is cell membranes, Membrane. The following applies: u-937; Not Active = under 50% inhibition at 10 µM.
In assay [5] the target is D(3) dopamine receptor (Homo sapiens, UniProt P35462). Description: DRUGMATRIX: Dopamine D3 radioligand binding (ligand: [3H] Spiperone). In kind it is cell membranes, CHO, Membrane. The note with it: cho.
Sequence of D(3) dopamine receptor (P35462 whole entry): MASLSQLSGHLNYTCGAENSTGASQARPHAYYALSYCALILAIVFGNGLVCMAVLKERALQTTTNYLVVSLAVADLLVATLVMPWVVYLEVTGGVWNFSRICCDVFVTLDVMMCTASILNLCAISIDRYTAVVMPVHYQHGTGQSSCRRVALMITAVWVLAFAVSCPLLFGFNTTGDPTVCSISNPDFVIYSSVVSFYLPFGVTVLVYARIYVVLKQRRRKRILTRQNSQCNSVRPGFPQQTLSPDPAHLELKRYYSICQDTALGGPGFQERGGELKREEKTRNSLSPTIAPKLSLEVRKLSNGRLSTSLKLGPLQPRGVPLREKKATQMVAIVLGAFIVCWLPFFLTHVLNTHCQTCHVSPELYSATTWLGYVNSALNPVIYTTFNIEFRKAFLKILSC
Assay [6] deals with T2, Muscarinic acetylcholine receptor M2 (Homo sapiens, UniProt P08172).
T2 sequence (P08172 whole entry): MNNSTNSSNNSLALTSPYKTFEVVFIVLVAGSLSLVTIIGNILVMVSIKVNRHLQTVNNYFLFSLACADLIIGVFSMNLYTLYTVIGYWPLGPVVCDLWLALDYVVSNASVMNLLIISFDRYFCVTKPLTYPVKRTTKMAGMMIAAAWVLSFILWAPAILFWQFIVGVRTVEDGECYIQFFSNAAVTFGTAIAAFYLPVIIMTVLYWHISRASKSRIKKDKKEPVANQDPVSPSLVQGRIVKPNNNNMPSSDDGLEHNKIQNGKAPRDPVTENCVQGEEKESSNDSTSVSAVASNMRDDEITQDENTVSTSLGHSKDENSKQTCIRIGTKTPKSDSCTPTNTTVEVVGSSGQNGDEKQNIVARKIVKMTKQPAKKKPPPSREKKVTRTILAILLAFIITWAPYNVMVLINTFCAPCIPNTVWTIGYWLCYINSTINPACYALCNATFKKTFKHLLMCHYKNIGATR
In kind it is cell membranes, CHO-K1, Membrane. The note with it: cho-k1.

The target of assay [7] is T3, Nitric oxide synthase, inducible (Mus musculus, UniProt P29477).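 Further: inhibition of iNOS enzyme activity measured with L-arginine as substrate; in other assays of this panel Not Active means under 50% inhibition at 10 µM.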
T3 sequence (P29477 whole entry): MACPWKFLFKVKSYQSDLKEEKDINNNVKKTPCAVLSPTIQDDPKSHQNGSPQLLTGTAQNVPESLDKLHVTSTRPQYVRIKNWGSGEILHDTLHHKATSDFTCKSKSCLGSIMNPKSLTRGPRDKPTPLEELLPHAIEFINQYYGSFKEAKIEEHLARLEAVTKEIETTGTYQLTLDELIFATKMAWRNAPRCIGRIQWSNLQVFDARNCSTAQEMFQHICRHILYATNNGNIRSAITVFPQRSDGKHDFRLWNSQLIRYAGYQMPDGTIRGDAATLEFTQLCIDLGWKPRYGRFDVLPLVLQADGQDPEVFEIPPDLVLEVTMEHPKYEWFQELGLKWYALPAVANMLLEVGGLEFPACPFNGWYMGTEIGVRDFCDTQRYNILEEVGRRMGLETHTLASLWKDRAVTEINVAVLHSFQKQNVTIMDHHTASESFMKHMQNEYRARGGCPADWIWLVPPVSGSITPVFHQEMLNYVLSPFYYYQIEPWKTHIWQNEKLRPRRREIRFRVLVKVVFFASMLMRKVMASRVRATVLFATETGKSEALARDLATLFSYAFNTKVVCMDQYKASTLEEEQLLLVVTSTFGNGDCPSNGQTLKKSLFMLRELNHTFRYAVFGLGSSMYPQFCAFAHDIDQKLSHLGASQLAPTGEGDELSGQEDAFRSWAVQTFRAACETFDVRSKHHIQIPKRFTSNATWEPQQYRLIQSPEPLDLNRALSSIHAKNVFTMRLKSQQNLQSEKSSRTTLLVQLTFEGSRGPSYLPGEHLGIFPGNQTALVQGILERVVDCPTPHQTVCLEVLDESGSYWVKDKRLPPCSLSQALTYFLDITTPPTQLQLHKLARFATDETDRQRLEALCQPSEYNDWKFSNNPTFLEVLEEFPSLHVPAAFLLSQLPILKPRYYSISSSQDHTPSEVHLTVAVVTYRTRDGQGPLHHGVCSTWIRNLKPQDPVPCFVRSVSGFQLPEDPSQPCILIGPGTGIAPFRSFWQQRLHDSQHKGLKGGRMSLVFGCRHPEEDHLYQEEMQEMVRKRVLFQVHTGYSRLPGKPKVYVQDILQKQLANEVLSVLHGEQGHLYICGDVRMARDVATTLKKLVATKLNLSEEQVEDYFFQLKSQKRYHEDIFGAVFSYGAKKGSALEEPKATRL
Further details: species or system Escherichia coli.

A short description of assay [8]: DRUGMATRIX: Phosphodiesterase PDE4 enzyme inhibition (substrate: [3H]cAMP + cAMP). The following applies: u-937; Not Active = under 50% inhibition at 10 µM.
In assay [9] the target is T4, Cholecystokinin receptor type A (Homo sapiens, UniProt P32238). Further: in other assays of this panel Not Active means under 50% inhibition at 10 µM.
T4 sequence (P32238 whole entry): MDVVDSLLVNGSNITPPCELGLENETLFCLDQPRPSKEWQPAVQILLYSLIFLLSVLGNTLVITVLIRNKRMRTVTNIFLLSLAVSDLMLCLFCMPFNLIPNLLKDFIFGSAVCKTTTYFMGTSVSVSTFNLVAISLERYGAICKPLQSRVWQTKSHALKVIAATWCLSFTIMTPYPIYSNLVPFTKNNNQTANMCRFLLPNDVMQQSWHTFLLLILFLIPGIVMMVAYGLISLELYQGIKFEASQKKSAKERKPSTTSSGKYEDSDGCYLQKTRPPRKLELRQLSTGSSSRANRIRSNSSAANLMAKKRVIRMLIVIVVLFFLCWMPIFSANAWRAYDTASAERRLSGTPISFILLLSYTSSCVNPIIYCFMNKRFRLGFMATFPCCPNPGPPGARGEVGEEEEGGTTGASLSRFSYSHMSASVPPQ
The format is cell membranes, Membrane. The following applies: 1321-n1.

Assay [10] deals with Beta-1 adrenergic receptor (Homo sapiens, UniProt P08588). Description: DRUGMATRIX: Adrenergic beta1 radioligand binding (ligand: [125I] Cyanopindolol). In kind it is cell membranes, CHO-K1, Membrane. The following applies: cho-k1; Not Active = under 50% inhibition at 10 µM.
Sequence of Beta-1 adrenergic receptor (P08588 whole entry): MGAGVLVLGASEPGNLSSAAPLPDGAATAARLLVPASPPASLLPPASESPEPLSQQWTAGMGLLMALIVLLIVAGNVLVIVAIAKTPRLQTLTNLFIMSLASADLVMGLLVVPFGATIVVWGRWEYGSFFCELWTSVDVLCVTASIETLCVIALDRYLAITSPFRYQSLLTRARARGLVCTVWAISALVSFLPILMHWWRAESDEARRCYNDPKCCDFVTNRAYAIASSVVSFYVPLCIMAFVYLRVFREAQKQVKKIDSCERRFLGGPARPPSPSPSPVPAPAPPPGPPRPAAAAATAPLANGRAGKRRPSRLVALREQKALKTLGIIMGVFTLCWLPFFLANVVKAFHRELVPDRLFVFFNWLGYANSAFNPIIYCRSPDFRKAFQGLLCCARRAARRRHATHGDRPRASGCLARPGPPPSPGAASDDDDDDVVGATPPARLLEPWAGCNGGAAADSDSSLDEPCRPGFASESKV

Sequence of Tyrosine-protein kinase Lck (P06239 whole entry): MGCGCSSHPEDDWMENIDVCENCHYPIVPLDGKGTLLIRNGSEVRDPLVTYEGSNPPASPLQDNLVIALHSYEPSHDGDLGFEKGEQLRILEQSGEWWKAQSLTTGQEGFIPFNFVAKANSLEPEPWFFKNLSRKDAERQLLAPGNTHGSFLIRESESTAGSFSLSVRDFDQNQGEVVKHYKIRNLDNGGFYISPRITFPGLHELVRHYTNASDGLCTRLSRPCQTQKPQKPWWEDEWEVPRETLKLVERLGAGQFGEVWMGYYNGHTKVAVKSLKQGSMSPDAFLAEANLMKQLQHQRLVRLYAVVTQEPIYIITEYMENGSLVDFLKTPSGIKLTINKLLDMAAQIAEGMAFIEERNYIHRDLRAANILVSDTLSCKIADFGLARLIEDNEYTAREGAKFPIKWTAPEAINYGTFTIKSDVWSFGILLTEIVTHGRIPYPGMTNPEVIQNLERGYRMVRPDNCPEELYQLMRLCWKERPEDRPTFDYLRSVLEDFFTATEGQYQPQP

For the compound `CC(C)(C)NCC(O)c1ccc(O)c(CO)c1` (centres undefined) [ALBUTEROL], the IC50 result in assay [1] (insect cells), in assay [2], in [3] (insect cells), in [4], in assay [5] and in [6] was “Not Active” in each case. Moreover, the IC50 entry in assay [7], in [8] and in assay [9] was “Not Active” each time. Moreover, the Ki entry in [4] and in [8] was “Not Active” each time.
For `COc1ccc(CCN2CCC(Nc3nc4ccccc4n3Cc3ccc(F)cc3)CC2)cc1` [ASTEMIZOLE], the IC50 in assay [1] (read-out: IC50) is 19.9 µM; in [2], “Not Active”; in assay [3] (read-out: IC50), 2850 nM; in assay [7], “Not Active”; in [9] it was “Not Active”.
Take `O=C(CCCN1CCC(O)(c2ccc(Cl)cc2)CC1)c1ccc(F)cc1` [HALOPERIDOL]: the IC50 result in assay [1] (insect cells), in assay [2], in assay [3] (insect cells), in [6], in assay [7] and in [10] was “Not Active” in each case. Further, the IC50 entry in assay [9] is on record as “Not Active”.
Turning to `CC(CCc1ccccc1)NCC(O)c1ccc(O)c(C(N)=O)c1` (centres undefined) [LABETALOL], the IC50 result in [1] (insect cells), in assay [2], in [3] (insect cells), in assay [4], in assay [5] and in assay [6] was “Not Active” throughout. The concentration for half-maximal inhibition (IC50) result in assay [7], in [8] and in [9] was “Not Active” throughout. Further, the Ki result in assay [4] and in assay [8] was “Not Active” each time.
With `CN1CCN2c3ccccc3Cc3ccccc3C2C1` (centres undefined) [MIANSERIN], the IC50 result in assay [1] (insect cells), in assay [2], in assay [3] (insect cells), in [5], in assay [7] and in assay [10] was “Not Active” in each case. Also, the IC50 entry in assay [9] is on record as “Not Active”.
With `O=C1c2c(O)ccc(O)c2C(=O)c2c(NCCNCCO)ccc(NCCNCCO)c21` [MITOXANTRONE], the IC50 entry is “Not Active” in assay [1] (insect cells); “Not Active” in [2]; 1260 nM in assay [3] (read-out: IC50); “Not Active” in assay [4]; “Not Active” in assay [5]; “Not Active” in assay [10]. In addition, the IC50 entry in [8] and in assay [9] was “Not Active” in each case. In addition, the Ki result in [4], in [7] and in assay [8] was “Not Active” in each case.
`CC(C)(C)NCC(O)c1cc(O)cc(O)c1` (centres undefined) [TERBUTALINE]: the IC50 entry in [1] (insect cells), in assay [2], in assay [3] (insect cells), in assay [4], in assay [5] and in assay [6] was “Not Active” in each case. For the same compound, the IC50 entry in assay [7], in assay [8] and in assay [9] was “Not Active” in each case. Moreover, the Ki entry in assay [4] and in assay [8] was “Not Active” throughout.
Regarding `CSc1ccc2c(c1)N(CCC1CCCCN1C)c1ccccc1S2` (centres undefined) [THIORIDAZINE], the IC50 entry in [1] (insect cells) is “Not Active”; in [2], “Not Active”; in assay [3] (read-out: IC50) it was 5050 nM; in [7], “Not Active”; in assay [10], “Not Active”; in [9], “Not Active”.
